{"source": "patent US10000511B2", "about": "“Small molecules for the modulation of MCL-1 and methods of modulating cell death, cell division, cell differentiation and methods of treating disorders” (priority 2010, dated 2018)"}
{"target": "T1, MCL-1ΔNΔC (Homo sapiens, UniProt Q07820)", "T1 sequence (Q07820 172-320 limits assumed, stated change not applied)": "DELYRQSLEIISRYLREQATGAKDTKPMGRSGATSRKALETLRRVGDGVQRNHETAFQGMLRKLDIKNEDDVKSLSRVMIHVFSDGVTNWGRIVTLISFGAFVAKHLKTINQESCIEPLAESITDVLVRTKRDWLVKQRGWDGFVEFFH", "experiment": "Competitive fluorescence polarization binding screen, FITC-MCL-1 SAHB/MCL-1ΔNΔC", "design": "the C-terminal alpha-helix was deleted from each of these constructs to facilitate protein expression and purification; an additional N-terminal deletion of MCL-1 was performed; GST (N, cleaved yes); made in house", "settings": "FITC-MCL-1 SAHB/MCL-1ΔNΔC interaction", "units": {"MCL-1% Bound": "%"}}
{"smiles": "Cc1ccc2c(c1C)NC(C(=O)O)C1CC=CC21", "note": "(stereo not shown)", "MCL-1% Bound": 14.5}
{"smiles": "Cc1ccc(/C=C2\\C(=O)Nc3ccc(Br)cc32)o1", "note": "[drawing 54]", "MCL-1% Bound": 18.74}
{"smiles": "CCN(CC)c1cc(C)c2cc(NC(=O)/C=C/c3ccco3)ccc2n1", "MCL-1% Bound": 11.73}
{"target": "BCL-XLΔC (Homo sapiens, UniProt Q07817)", "sequence (Q07817 1-212 limits assumed, stated change not applied)": "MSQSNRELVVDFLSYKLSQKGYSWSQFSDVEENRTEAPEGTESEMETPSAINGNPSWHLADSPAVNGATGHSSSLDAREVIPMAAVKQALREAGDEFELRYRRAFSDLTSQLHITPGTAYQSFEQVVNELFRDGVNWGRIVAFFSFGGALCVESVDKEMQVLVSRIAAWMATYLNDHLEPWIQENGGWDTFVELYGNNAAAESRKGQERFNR", "experiment": "Competitive fluorescence polarization binding screen, FITC-BAD BH3/BCL-XLΔC", "settings": "FITC-BAD BH3/BCL-XLΔC interaction", "units": {"BCL-XL % Bound": "%"}}
{"smiles": "CCSC1=C(C#N)C(=O)NC(c2ccc(O)cc2)S1", "note": "(stereo not shown)", "BCL-XL % Bound": 84.82}
{"smiles": "O=C(/C=C/c1ccc(Br)o1)OCC(=O)c1c[nH]c2ccccc12", "BCL-XL % Bound": 105.6}
{"smiles": "CCN(CC)c1cc(C)c2cc(NC(=O)/C=C/c3ccco3)ccc2n1", "BCL-XL % Bound": 79.88}
{"smiles": "COc1ccc(/C=c2\\s/c(=C\\C(=O)c3ccco3)[nH]c2=O)cc1O", "BCL-XL % Bound": 263.7}
{"target": "T1, MCL-1ΔNΔC", "experiment": "not given", "settings": "pre-incubation, dilution, re-concentration, FITC-BID BH3 FP"}
{"smiles": "Cc1cc2c(C(C)C)c(O)c(O)c(C=O)c2c(O)c1-c1c(C)cc2c(C(C)C)c(O)c(O)c(C=O)c2c1O", "note": "[Gossypol]", "mode of binding to MCL-1ΔNΔC (reversible/non-covalent vs covalent)": "bound reversibly"}
{"target": "T1, MCL-1ΔNΔC", "experiment": "not given", "settings": "pre-incubation, dilution, re-concentration, FITC-BID BH3 FP; listed as 1570G15"}
{"smiles": "Cc1cc2c(C(C)C)c(O)c(O)c(C=O)c2c(O)c1-c1c(C)cc2c(C(C)C)c(O)c(O)c(C=O)c2c1O", "note": "[Gossypol]", "mode of binding to MCL-1ΔNΔC (reversible/non-covalent vs covalent)": "engages MCL-1 through non-covalent interactions"}
{"test_system": "MCL-1ΔNΔC", "experiment": "Competitive fluorescence polarization binding screen, FITC-MCL-1 SAHB/MCL-1ΔNΔC", "settings": "selectivity for MCL-1ΔNΔC over BCL-XLΔC (BCL-XL % Bound minus MCL-1 % Bound)"}
{"smiles": "CC1CCN(C2=NN3C(=N)/C(=C\\c4ccc(SCc5ccco5)o4)C(=O)N=C3S2)CC1", "Spec Values": 70.38}
{"smiles": "C/C(=N\\OCc1ccc(C(=O)N2CCCCC2)o1)c1cccc(C(F)(F)F)c1", "Spec Values": 55.34}
{"smiles": "Oc1cccnc1NC(c1ccc(F)cc1)c1ccc2cccnc2c1O", "note": "(stereo not shown)", "Spec Values": 71.24}
{"smiles": "Cc1ccc(/C=C2\\C(=O)Nc3ccc(Br)cc32)o1", "note": "[drawing 279]", "Spec Values": 58.85}
{"smiles": "Cc1ccc(C)n1-c1cc(Cl)ccc1C(=O)O", "Spec Values": 79.84}
{"smiles": "O=C(/C=C/c1ccco1)NC(=S)Nc1ccccc1C(F)(F)F", "Spec Values": 52.25}
{"smiles": "Cc1cc(NC(=O)/C=C/c2ccco2)n(-c2nc3ccccc3n2Cc2cccc(Oc3ccccc3)c2)n1", "Spec Values": 48.1}
{"smiles": "O=C(CCN1C(=O)/C(=C\\C=C\\c2ccco2)SC1=S)Nc1ccc(C(=O)O)c(O)c1", "Spec Values": 54.54}
{"smiles": "CN1CCN(C(c2ccccn2)c2c(-c3ccccc3)n(O)c3ccccc23)CC1", "note": "(stereo not shown)", "Spec Values": 49.28}
{"smiles": "O=c1c(O)c(-c2ccc(O)c(O)c2)oc2cc(O)cc(O)c12", "Spec Values": 88.65}
{"smiles": "COc1cc(C(c2nnnn2C2CCCCC2)N2CCc3ccccc3C2)ccc1O", "note": "(stereo not shown)", "Spec Values": 48.33}
{"smiles": "O=C(/C=C/c1ccc(Br)o1)OCC(=O)c1c[nH]c2ccccc12", "Spec Values": 52.14}
{"smiles": "COc1ccc(-c2nc3scc(CCNC(=O)/C=C/c4ccco4)n3n2)cc1", "Spec Values": 46.24}
{"smiles": "Cc1ccc(/C=C2\\C(=O)Nc3ccc(Br)cc32)o1", "note": "[drawing 54]", "Spec Values": 58.85}
{"smiles": "CCSC1=C(C#N)C(=O)NC(c2ccc(N(C)C)cc2)S1", "note": "(stereo not shown)", "Spec Values": "49.2!"}
{"smiles": "Cc1c(Cl)cccc1N1C(=O)CC(N2CCCc3ccccc32)C1=O", "note": "(stereo not shown)", "Spec Values": 48.92}
